# Experimental data reported in article PMC11344421, “Polyphyllin I exerts anti-hepatocellular carcinoma activity by targeting ZBTB16 to activate the PPARγ/RXRα signaling pathway” (Chinese Medicine, 2024).
# Target: T1, recombinant human (rh) ZBTB16 protein (Homo sapiens, UniProt Q05516)
# T1 construct: recombinant human protein immobilised on sensor
# T1 sequence (Q05516 1-673): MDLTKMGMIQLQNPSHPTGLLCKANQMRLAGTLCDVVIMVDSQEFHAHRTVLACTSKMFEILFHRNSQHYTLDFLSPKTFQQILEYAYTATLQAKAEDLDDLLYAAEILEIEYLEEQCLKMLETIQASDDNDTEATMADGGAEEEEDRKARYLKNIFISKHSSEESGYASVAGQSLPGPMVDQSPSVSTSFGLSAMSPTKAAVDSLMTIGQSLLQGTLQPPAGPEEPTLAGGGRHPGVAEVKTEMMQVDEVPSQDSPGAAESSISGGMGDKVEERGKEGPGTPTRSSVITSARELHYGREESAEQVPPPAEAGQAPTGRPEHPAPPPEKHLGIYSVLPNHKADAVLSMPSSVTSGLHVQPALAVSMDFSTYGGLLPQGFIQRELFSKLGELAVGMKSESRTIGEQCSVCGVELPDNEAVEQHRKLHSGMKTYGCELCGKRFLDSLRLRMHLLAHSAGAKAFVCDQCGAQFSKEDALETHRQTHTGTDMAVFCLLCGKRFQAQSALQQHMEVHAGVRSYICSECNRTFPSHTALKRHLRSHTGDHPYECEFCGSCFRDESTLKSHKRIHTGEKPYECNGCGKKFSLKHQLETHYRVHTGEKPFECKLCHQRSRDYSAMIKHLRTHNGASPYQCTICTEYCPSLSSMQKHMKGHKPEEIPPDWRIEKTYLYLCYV
# Assay: surface plasmon resonance (OpenSPR, ZBTB16 immobilised by EDC/NHS)
# Type: binding
smiles,measurement,value
C[C@@H]1CC[C@@]2(OC1)O[C@H]1C[C@H]3[C@@H]4CC=C5C[C@@H](O[C@@H]6O[C@H](CO)[C@@H](O[C@@H]7O[C@@H](CO)[C@H](O)[C@H]7O)[C@H](O)[C@H]6O[C@@H]6O[C@@H](C)[C@H](O)[C@@H](O)[C@H]6O)CC[C@]5(C)[C@H]4CC[C@]3(C)[C@H]1[C@@H]2C [Polyphyllin I],Kd,5.5 µM
